Source: PubChem BioAssay AID248 (DTP/NCI, 2004)
Several values for one entry are separate records, joined by “and”; a condition that tells them apart may be missing. Equal entries are not always repeated. Toxic doses and inconclusive results are not listed. No stated cut-off is given here; in the data, active means T/C of 150% or more; inactive means T/C below 125%.

Test system: L1210 leukemia ip in BDF1 mice, survival T/C
Assay: NCI In Vivo Anticancer Drug Screen. Data for tumor model L1210 Leukemia (intraperitoneal) in B6D2F1 (BDF1) mice
Conditions: endpoint: mean survival time, higher = longer survival
How it was run: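 Survival endpoint. Drug-treated group vs vehicle group, expressed as T divided by C. Tumor passaged by transplantation.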

[1] = dose: 100.0 mg/kg/injection, schedule: Q04DX003 (ip), vehicle: saline with Tween-80
[2] = dose: 200.0 mg/kg/injection, schedule: Q04DX003 (ip), vehicle: saline with Tween-80
[3] = dose: 400.0 mg/kg/injection, schedule: Q04DX003 (ip), vehicle: saline with Tween-80
[4] = dose: 100.0 mg/kg/injection, schedule: Q04DX003 (ip), vehicle: Klucel (hydroxypropylcellulose) (HPC)
[5] = dose: 200.0 mg/kg/injection, schedule: Q04DX003 (ip), vehicle: Klucel (hydroxypropylcellulose) (HPC)
[6] = dose: 400.0 mg/kg/injection, schedule: Q04DX003 (ip), vehicle: Klucel (hydroxypropylcellulose) (HPC)
[7] = dose: 50.0 mg/kg/injection, schedule: Q01DX001 (ip), vehicle: saline
[8] = dose: 100.0 mg/kg/injection, schedule: Q01DX001 (ip), vehicle: saline
[9] = dose: 200.0 mg/kg/injection, schedule: Q01DX001 (ip), vehicle: saline
[10] = dose: 100.0 mg/kg/injection, schedule: Q04DX003 (ip), vehicle: saline
[11] = dose: 200.0 mg/kg/injection, schedule: Q04DX003 (ip), vehicle: saline
[12] = dose: 400.0 mg/kg/injection, schedule: Q04DX003 (ip), vehicle: saline
[13] = dose: 100.0 mg/kg/injection, schedule: Q01DX009 (ip), vehicle: saline with Tween-80
[14] = dose: 200.0 mg/kg/injection, schedule: Q01DX009 (ip), vehicle: saline with Tween-80
[15] = dose: 400.0 mg/kg/injection, schedule: Q01DX009 (ip), vehicle: saline with Tween-80
[16] = dose: 400.0 mg/kg/injection, schedule: Q01DX001 (ip), vehicle: saline

Measured: T/C

CC(C)([CH2][Sn]([Cl])([Cl])[CH2]C(C)(C)c1ccccc1)c1ccccc1
inactive: dose: 0.1 mg/kg/injection, schedule: Q04DX002 (ip), vehicle: saline with Tween-80 95 % of control | dose: 0.2 mg/kg/injection, schedule: Q04DX002 (ip), vehicle: saline with Tween-80 95 % of control | dose: 0.4 mg/kg/injection, schedule: Q04DX002 (ip), vehicle: saline with Tween-80 95 % of control | dose: 0.8 mg/kg/injection, schedule: Q04DX002 (ip), vehicle: saline with Tween-80 92 % of control | dose: 3.13 mg/kg/injection, schedule: Q04DX002 (ip), vehicle: saline with Tween-80 98 % of control

Cc1cc(N(CCCOS(C)(=O)=O)CCCOS(C)(=O)=O)ccc1C=Nc1cccc(Cl)c1
inactive: [1] 97 % of control | [2] 98 % of control | [3] 92 % of control

Cc1cc(C)c(-c2c(Br)c(OC(=O)c3ccc([N+](=O)[O-])cc3)c(-c3c(C)cc(C)c(Br)c3C)c(Br)c2OC(=O)c2ccc([N+](=O)[O-])cc2)c(C)c1Br
inactive: dose: 100.0 mg/kg/injection, schedule: Q01DX009 (ip), vehicle: Klucel (hydroxypropylcellulose) (HPC) 101 % of control | [4] 104 % of control | dose: 200.0 mg/kg/injection, schedule: Q01DX009 (ip), vehicle: Klucel (hydroxypropylcellulose) (HPC) 97 % of control | [5] 96 % of control | dose: 400.0 mg/kg/injection, schedule: Q01DX009 (ip), vehicle: Klucel (hydroxypropylcellulose) (HPC) 100 % of control | [6] 96 % of control

O=C1CCC(=O)N1[N+](=O)[O-]
inactive: [7] 95 % of control and 89 % of control | [8] 97 % of control and 101 % of control | [9] 103 % of control and 107 % of control

[O-][N+](=Nc1ccc2c(c1)Cc1ccccc1-2)c1ccc2c(c1)Cc1ccccc1-2
inactive: [1] 96 % of control | [2] 92 % of control | [3] 91 % of control

c1cc[c]2c(c1)Oc1cccc[c]1[Sn]21[c]2ccccc2Oc2cccc[c]21
inactive: dose: 100.0 mg/kg/injection, schedule: Q01DX001 (ip), vehicle: other 91 % of control | dose: 200.0 mg/kg/injection, schedule: Q01DX001 (ip), vehicle: other 96 % of control | dose: 400.0 mg/kg/injection, schedule: Q01DX001 (ip), vehicle: other 89 % of control

COc1cccc(C=Nc2ccc(I)cc2)c1O.COc1cccc(C=Nc2ccc(I)cc2)c1O.[Co]
inactive: [10] 94 % of control | [11] 94 % of control | [12] 109 % of control

O=c1c2c(O)cccc2oc2cccc(O)c12
inactive: [13] 95 % of control | [14] 91 % of control | [15] 96 % of control

COC(=O)NC1c2ccccc2CCC1I (configuration not stated)
inactive: dose: 50.0 mg/kg/injection, schedule: Q01DX009 (ip), vehicle: saline with Tween-80 94 % of control | [13] 90 % of control | [14] 92 % of control

CCCCCCCCCCCCC(=O)[O][Hg][c]1ccccc1
inactive: dose: 9.38 mg/kg/injection, schedule: Q01DX001 (ip), vehicle: steriod suspending solution 96 % of control | dose: 18.75 mg/kg/injection, schedule: Q01DX001 (ip), vehicle: steriod suspending solution 98 % of control

COc1ccc2c(c1)CCC1C2CCC2(C)C1CCC21CCNP(=O)(N(CCCl)CCCl)O1 (configuration not stated)
inactive: [4] 101 % of control | [5] 103 % of control | [6] 92 % of control

CCC1(C)NC(=O)NC1=O (configuration not stated)
inactive: dose: 50.0 mg/kg/injection, schedule: Q01DX009 (ip), vehicle: saline 100 % of control | [8] 112 % of control | dose: 100.0 mg/kg/injection, schedule: Q01DX009 (ip), vehicle: saline 98 % of control | [10] 106 % of control | [9] 102 % of control | dose: 200.0 mg/kg/injection, schedule: Q01DX009 (ip), vehicle: saline 111 % of control | [11] 101 % of control | [16] 100 % of control | dose: 400.0 mg/kg/injection, schedule: Q01DX009 (ip), vehicle: saline 109 % of control | [12] 101 % of control

CC(C)c1cccc2ccccc12
inactive: dose: 100.0 mg/kg/injection, schedule: Q04DX003 (ip), vehicle: acetone 95 % of control | dose: 200.0 mg/kg/injection, schedule: Q04DX003 (ip), vehicle: acetone 88 % of control

CC1C2C=CC1C(c1c3ccc(=O)cc-3oc3cc(O)ccc13)C2C(=O)O (configuration not stated)
inactive: [13] 98 % of control | [14] 104 % of control | [15] 104 % of control

CCOC(=O)CC/C(C)=N\N(C)C
inactive: [10] 93 % of control | [11] 97 % of control | [12] 93 % of control

Cc1ccc2c(c1)C(=NCCCN=C1C(=O)Nc3ccc(C)cc31)C(=O)N2
inactive: [13] 96 % of control | [1] 93 % of control | [14] 91 % of control | [2] 102 % of control | [15] 98 % of control | [3] 98 % of control

COC(=O)c1cccc2c1C1CCC2c2cccc(C(=O)OC)c21
inactive: dose: 100.0 mg/kg/injection, schedule: Q04DX002 (ip), vehicle: gum acacia 101 % of control | dose: 200.0 mg/kg/injection, schedule: Q04DX002 (ip), vehicle: gum acacia 96 % of control | dose: 400.0 mg/kg/injection, schedule: Q04DX002 (ip), vehicle: gum acacia 99 % of control

C=C1C(=O)OC2C(=O)OC(CCCCCCCC)C12 (configuration not stated)
inactive: dose: 6.2 mg/kg/injection, schedule: Q04DX002 (ip), vehicle: Klucel (hydroxypropylcellulose) (HPC) 97 % of control | dose: 12.5 mg/kg/injection, schedule: Q04DX002 (ip), vehicle: Klucel (hydroxypropylcellulose) (HPC) 94 % of control | dose: 25.0 mg/kg/injection, schedule: Q04DX002 (ip), vehicle: Klucel (hydroxypropylcellulose) (HPC) 97 % of control and 104 % of control

Cc1ccc(S(=O)(=O)NC(=O)NC2CCCCC2)cc1
inactive: [10] 88 % of control | [11] 93 % of control | [12] 104 % of control

C[N+](C)(C)CCC(=O)c1ccccc1
inactive: dose: 12.5 mg/kg/injection, schedule: Q04DX003 (ip), vehicle: saline 97 % of control | dose: 25.0 mg/kg/injection, schedule: Q04DX003 (ip), vehicle: saline 100 % of control | dose: 50.0 mg/kg/injection, schedule: Q04DX003 (ip), vehicle: saline 94 % of control | dose: 75.0 mg/kg/injection, schedule: Q01DX001 (ip), vehicle: saline 102 % of control

O=C1c2ccccc2C(=O)N1CCCn1c2ccccc2c2cnccc21
inactive: [13] 101 % of control | [1] 103 % of control | [14] 104 % of control | [2] 95 % of control | [15] 104 % of control | [3] 92 % of control

O=C(O)CSc1ccccc1C(=O)O
inactive: [7] 93 % of control | dose: 75.0 mg/kg/injection, schedule: Q04DX003 (ip), vehicle: Klucel (hydroxypropylcellulose) (HPC) 94 % of control | dose: 100.0 mg/kg/injection, schedule: Q01DX001 (ip), vehicle: Klucel (hydroxypropylcellulose) (HPC) 96 % of control | [8] 100 % of control | dose: 150.0 mg/kg/injection, schedule: Q04DX003 (ip), vehicle: Klucel (hydroxypropylcellulose) (HPC) 90 % of control | dose: 200.0 mg/kg/injection, schedule: Q01DX001 (ip), vehicle: Klucel (hydroxypropylcellulose) (HPC) 120 % of control | [9] 102 % of control | dose: 300.0 mg/kg/injection, schedule: Q04DX003 (ip), vehicle: Klucel (hydroxypropylcellulose) (HPC) 92 % of control | dose: 400.0 mg/kg/injection, schedule: Q01DX001 (ip), vehicle: Klucel (hydroxypropylcellulose) (HPC) 102 % of control

CC(C)CCCCCCCCOC(=O)c1ccccc1C(=O)OCCCCCCCCC(C)C
inactive: [8] 98 % of control | [9] 103 % of control | [16] 103 % of control
